Source: PubChem BioAssay (NCI)
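Five compound concentrations were applied to cells in 96-well plates for 48 hours; endpoints were derived by simple linear interpolation of the resulting dose-response curve. The concentration for 50% growth inhibition is given as GI50. TGI denotes the concentration required for complete inhibition of growth.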

What was measured:
Assay in all cases: growth of human tumour cells (NCI), 48 h
[1] = test system: SNB-75 CNS
[2] = test system: A498 renal
[3] = test system: OVCAR-8 ovarian
[4] = test system: HT29 colon
[5] = test system: SN12C renal
[6] = test system: RXF 393 renal
[7] = test system: TK-10 renal
[8] = test system: SR leukemia
[9] = test system: SK-MEL-5 melanoma
[10] = test system: NCI/ADR-RES ovarian

Row | SMILES | TGI [1] [µM] | TGI [2] [µM] | TGI [3] [µM] | TGI [4] [µM] | TGI [5] [µM] | TGI [6] [µM] | TGI [7] [µM] | TGI [8] [µM] | TGI [9] [µM] | GI50 [1] [µM] | GI50 [3] [µM] | GI50 [8] [µM] | GI50 [4] [µM] | GI50 [10] [µM] | TGI [10] [µM] | GI50 [5] [µM] | GI50 [6] [µM] | GI50 [9] [µM] | GI50 [7] [µM] | GI50 [2] [µM]
1 | O=C1C=CC2(CCC23C=CC(=O)O3)O1 (stereo not given) | > 100 | > 100 | > 100 | > 100 | > 100 | > 100 | > 100 | – | – | – | – | – | – | – | – | – | – | – | – | –
2 | C=C1C(=O)O[C@@H]2C[C@@]3(C)[C@H](O)CCC(=C)[C@@H]3C[C@H]12 | 15.2 | – | 23.3 | 12.1 | 23.2 | – | 25 | 14 | 16.8 | – | – | – | – | – | – | – | – | – | – | –
3 | Cc1ccc(S(=O)(=O)Nc2ccccc2C(C)(C)C)cc1 | > 100 | 59.7 | > 100 | 31.9 | – | 26.8 | > 100 | – | 29.8 | – | – | – | – | – | – | – | – | – | – | –
4 | O=C(Nc1ccccc1C(=O)NC(=O)c1ccccc1NC(=O)c1ccccc1)c1ccccc1 | 8.87 | 33.3 | 23 | 12.7 | 17.2 | 9.15 | 25.9 | 8.52 | 12.2 | – | – | – | – | – | – | – | – | – | – | –
5 | O=C1C2C(C(=O)N1Cc1ccccc1)N(Cc1ccccc1)C(=O)N2Cc1ccccc1 (stereo not given) | > 100 | > 100 | > 100 | > 100 | > 100 | > 100 | > 100 | > 100 | > 100 | – | – | – | – | – | – | – | – | – | – | –
6 | O=C1OC(=O)c2c1nc1ccccc1c2-c1ccccc1 | > 100 | > 100 | > 100 | > 100 | > 100 | > 100 | > 100 | > 100 | > 100 | – | – | – | – | – | – | – | – | – | – | –
7 | C#Cc1cccc(NC(=O)/C=C\C(=O)O)c1 | > 100 | > 100 | > 100 | > 100 | > 100 | – | > 100 | – | > 100 | – | – | – | – | – | – | – | – | – | – | –
8 | CCCCCCCCCC1CC(=O)OC23CCCC(=O)C12O3 (stereo not given) | > 100 | > 100 | > 100 | > 100 | > 100 | > 100 | > 100 | – | > 100 | – | – | – | – | – | – | – | – | – | – | –
9 | O=[N+]([O-])c1cccnc1S(=O)(=O)c1ccccc1 | 35.9 | 36.6 | 26.8 | 14.3 | 23.5 | 3.77 | 22.2 | > 100 | 32.6 | – | – | – | – | – | – | – | – | – | – | –
10 | CC(C)N(C(=O)C12C3C4C1C1C4(C#N)C3C12C(=O)O)C(C)C (stereo not given) | > 100 | > 100 | > 100 | > 100 | > 100 | – | > 100 | 41.4 | > 100 | – | – | – | – | – | – | – | – | – | – | –
11 | N#Cc1c(-c2ccccc2)c(-c2ccccc2)cc2c(=O)c3ccc(Cl)cc3[nH]c12 | > 100 | – | > 100 | > 100 | > 100 | > 100 | > 100 | > 100 | – | – | – | – | – | – | – | – | – | – | – | –
12 | N#Cc1ccccc1Sc1ccccc1N | – | > 100 | > 100 | > 100 | > 100 | > 100 | > 100 | > 100 | 77.3 | – | – | – | – | – | – | – | – | – | – | –
13 | CC(C)(C)C1=NO[C@H]2[C@@H](NC(=O)c3ccccc3)CC[C@@H]12 | > 100 | – | > 100 | > 100 | > 100 | > 100 | > 100 | > 100 | > 100 | – | – | – | – | – | – | – | – | – | – | –
14 | CCOC1c2nc3ccccc3nc2-c2ccccc2N1C(C)=O (stereo not given) | > 100 | > 100 | > 100 | > 100 | > 100 | > 100 | – | > 100 | – | – | – | – | – | – | – | – | – | – | – | –
15 | O=C(Nc1nc(=S)[nH][nH]1)C(=O)C(c1cnc2ccc([N+](=O)[O-])cc2n1)[N+](=O)[O-] (stereo not given) | > 100 | > 100 | > 100 | > 100 | > 100 | > 100 | > 100 | > 100 | > 100 | – | – | – | – | – | – | – | – | – | – | –
16 | OCC1OC(OC2(CO)OC(CO)C(O)C2O)C(O)C(O)C1O (stereo not given) | > 100 | – | > 100 | > 100 | > 100 | > 100 | > 100 | > 100 | > 100 | > 100 | > 100 | > 100 | > 100 | > 100 | > 100 | > 100 | > 100 | > 100 | > 100 | –
17 | CCOC(=O)c1cn(C)c2c(OC)c3ccccc3c(OC)c2c1=O | > 100 | – | 63.7 | > 100 | 86.9 | – | 62 | 88.6 | – | > 100 | 20.2 | 28.5 | 64.3 | 20.4 | 56.5 | 28.1 | – | – | 30.1 | –
18 | O=C1C=CC2(O)OCC3C=C4O[C@@H]5OC6(CCCCC6)O[C@@H]5C4[C@@H]2[C@@H]13 (stereo not given in full) | > 100 | > 100 | 77.2 | 50.9 | > 100 | – | 48.6 | – | > 100 | – | – | – | – | – | – | – | – | – | – | –
19 | C/C(=N\NC(=S)N1CCC1)c1ccccn1 | > 29.9 | 10.6 | 12 | 34.5 | > 100 | 4.39 | > 79.3 | – | 2.01 | – | 0.00715 | 0.00819 | 0.00471 | – | – | 0.0289 | – | 0.00994 | 0.00375 | –
20 | COc1ccc(-c2cnc(-c3ccncc3-c3cccc(OC)c3)o2)cc1 | 23.2 | – | 15.3 | 10.3 | 16 | – | 42.1 | 13.5 | 0.226 | 0.0329 | 0.0484 | < 0.0152 | 0.033 | 0.0265 | 30.1 | 0.0798 | – | 0.0379 | 11.7 | –
21 | O=C(O)c1ccccc1C(=O)c1ccco1 | > 100 | > 100 | > 100 | > 100 | > 100 | > 100 | > 100 | > 100 | > 100 | – | – | – | – | – | – | – | – | – | – | –
22 | Nc1nc(Cl)c2ncn(Cc3ccc(C45CC6CC(CC(C6)C4)C5)c(OCc4cc(F)c(F)cc4F)c3)c2n1 | > 100 | 22.8 | 14.2 | 22.7 | 11.3 | 2.66 | 10.3 | – | 2.24 | 27.5 | 2.94 | – | 3.45 | 3.5 | 13.8 | 3.05 | 0.677 | 0.392 | 2.88 | 8.78
